# Laboratory results: patent US12414960B2, “Analogues of oleuropein and oleacein and uses thereof” (Attica Sciences Ltd., priority 2020, dated 2025)
# Tested on: MCF-10A non-tumorigenic mammary epithelial cells
# Test: Cell Glo luminescence cell growth assay, MCF-10A normal cells
# Format: cell-based, human
# Conditions: 10 μM, forty-eight hours post-treatment
# Source text: The CellTiter-Glo® Luminescent Cell Viability Assay (Promega Corporation; Madison, WI) is a homogeneous method of determining the number of viable cells in culture based on quantitation of the ATP present, an indicator of metabolically active cells. The homogeneous assay procedure involves adding the single reagent (CellTiter-Glo® Reagent) directly to cells cultured in serum-supplemented medium. The homogeneous “add-mix-measure” format results in cell lysis and generation of a luminescent signal proportional to the amount of ATP present. The amount of ATP is directly proportional to the number of cells present in culture.
# Cancer cells (3,000 cells/well) were harvested in a 96-well plate. Then, the cancer cells were treated with GS compounds and incubated for 24 hours. The MT Cell Viability Substrate, NanoLuc® Enzyme and cell culture medium was equilibrated to 37° C. The 2× RealTime-Glo™ reagent was prepared by diluting the MT Cell Viability Substrate and NanoLuc® Enzyme in 37° C. cell culture medium to a 2× concentration for each reagent. […] The cells were kept for ˜20 minutes in the cell culture incubator and then luminescence was measured by using a plate-reading luminometer. […]
# The effects of exemplary compounds on cancer cell lines and one non-tumorigenic cell line (control) were investigated using a high throughput screening assay. More specifically, the effects of the GS compounds on cell growth was evaluated by the XTT assay for cell lines HepG2, HeLa, MCF7 ER+, MDA-MB-231, and MKN-45, and by the Cell Glo luminescence assay for cell lines MIA PaCa-2, HCT-116, MCF-10A, and PANC-1. […]
# The effect of GS27 on normal cell growth was evaluated using the MCF-10A cell line. […]
# GS27, NDI-091143 and Nexletol (10 μM) were used to treat normal epithelial cells MCF-10A cells. […] Forty-eight hours post-treatment, the growth of MCF-10A cells was evaluated by CellTiter-Glo® Luminescent Cell Viability Assay, as discussed in Example 29.
compound,measurement,value
"C/C=C(/C=O)[C@@H](CC=O)CC(=O)SCCc1ccccc1 [GS27, S-phenethyl (3S,4E)-4-formyl-3-(2-oxoethyl)hex-4-enethioate]",effect on MCF-10A normal cell growth,did not have any effect
